From patent publication US20230257359A1, “4-ARYLQUINAZOLINE DERIVATIVES AS METHIONINE ADENOSYLTRANSFERASE 2A INHIBITORS” (IDEAYA BIOSCIENCES, INC., priority 2020, published 2023)

What was measured:
[1] = biological target: T1, hMAT2A (Homo sapiens, UniProt P31153); test: Phosphate Sensor Fluorescence Assay (MAT2A enzyme inhibition); format: biochemical; parameters: Human MAT2A: Cepter, amino acids 1-395; purchased Cepter clone ID 329, lot 00023-123; clone ID 334, lot 00023-148; details: L-methionine and ATP 500 uM, 1 hour
Protocol: (§1) The ability of the compound of present disclosure to inhibit MAT2A enzyme was determined using the Malachite Green or Phosphate Sensor Fluorescence Assay described below.
Biologic Example B. Phosphate Sensor Fluorescence Assay
MAT2A enzyme is incubated with a test compound in DMSO or DMSO and its substrates (L-methionine and ATP) in a microtiter plate. The enzymatic reaction is stopped by the addition of Working Phosphate Sensor Mixture. The plate is analyzed for fluorescence at 450 nm. The high control (DMSO with enzyme and its substrates) gives high fluorescence which represents no inhibition of enzymatic activity while the low control (DMSO with MAT2A substrates and no enzyme) gives low fluorescence which represents full inhibition of enzymatic activity.
Human MAT2A: Cepter, amino acids 1-395
Assay Buffer: 50 mM Tris, pH 7.5/50 mM KCl/10 mM MgCl2/0.01% Brij-35/1 mM DTT/0.1% BGG/40 nM PNP/6 uM 7-MEG
MAT2A: 10 nM for Cepter clone ID 329, lot 00023-123 before the addition of Working Phosphate Sensor Mixture • 5 nM for Cepter clone ID 334, lot 00023-148 before the addition of Working Phosphate Sensor Mixture
L-methionine: 500 uM before the addition of Working Phosphate Sensor Mixture
ATP: 500 uM before the addition of Working Phosphate Sensor Mixture
For the assay, a mixture of 1 mM L-methionine/1 mM ATP (2× final pre-stopped concentration) in assay buffer; MAT2A (2× final pre-stopped concentration) in Assay Buffer and Working Phosphate Sensor Mixture (1.5 uM Phosphate Sensor/30 mM EDTA in Assay Buffer, which is 3× final concentrations) were prepared. Test compounds or DMSO were added to the appropriate well suing D300e digital dispenser. 5 μl/well of Assay Buffer was added to the wells corresponding to the negative control and 5 μl/well of MAT2A was added to all the wells except for those corresponding to the negative control. After incubating the plate at room temperature for 15 minutes, 5 μl/well of the 1 mM L-methionine/1 mM ATP mixture was added to all wells. The plate was centrifuged at 1000 rpm for 1 minute and then incubated at room temperature for 1 hour. 5 μl of the Working Phosphate Sensor Mixture was added to all wells and the plate was centrifuged at 1000 rpm for 1 minute. The plate was read for fluorescence at 450 nm after exciting at 430 nm.
Percent inhibition was calculated in Chemical and Biological Information System (CBIS), (ChemInnovation Software Inc.). Curves were fitted by CBIS as % inhibition vs. log [compound concentration] using a 4-parameter inhibition model.
Fit=(A+((B−A)/(1+((C/x)^D))))

[2] = biological target: T1, hMAT2A; test: Malachite Green Assay (MAT2A enzyme inhibition); format: biochemical; parameters: amino acids 1-395; purchased Cepter; details: hMAT2A 50 nM, substrates 500 uM each, 1 hour
Protocol: as §1
Biologic Example A. Malachite Green Assay
Enzyme: MAT2A • hMAT2A: 50 nM, Cepter, 10 mg/mL (234 μM), amino acids 1-395 • Substrates: 500 uM each • Reaction time: 1 hour
L-methionine Substrate: Alfa Aesar catalog #J61904
ATP Substrate: Alfa Aesar cat #J60336
Malachite Green Detection Reagent: Millipore Sigma catalog #MAK307-1KT
Assay buffer: 50 mM Tris, pH 7.5/50 mM KCl/10 mM MgCl2/0.01% Brij-35/1 mM DTT/0.1% BGG
0% inhibition control: DMSO
100% inhibition control: No enzyme
5 μL of 3× final concentration test compounds in DMSO or DMSO were transferred to the appropriate wells of a microtiter plate and the plate was centrifuged at 1000 rpm for 1 minute. 5 μL of 3× final concentration MAT2A enzyme in assay buffer or assay buffer alone was transferred to the appropriate wells and the plate was centrifuged at 1000 rpm for 1 minute. The plate was incubated at room temperature for 15 minutes and then 5 μL of 3× the L-methionine and ATP substrate mixture in assay buffer was transferred to all the test wells. The plate was centrifuged at 1000 rpm for 1 minute and then incubated at room temperature for 1 hour. 5 μL of malachite green detection reagent was added to all the test wells and the plate was centrifuged at 1000 rpm for 1 minute and then incubated at room temperature for 30 minutes. The plate was read for absorbance at 620 nm on a plate reader (e.g., Infinite M1000). The high control (DMSO) with high absorbance represents no inhibition of enzymatic reaction while the low control (no enzyme) with low absorbance represents full inhibition of enzymatic reaction.

T1 sequence (P31153 whole entry, the tested form may be a part): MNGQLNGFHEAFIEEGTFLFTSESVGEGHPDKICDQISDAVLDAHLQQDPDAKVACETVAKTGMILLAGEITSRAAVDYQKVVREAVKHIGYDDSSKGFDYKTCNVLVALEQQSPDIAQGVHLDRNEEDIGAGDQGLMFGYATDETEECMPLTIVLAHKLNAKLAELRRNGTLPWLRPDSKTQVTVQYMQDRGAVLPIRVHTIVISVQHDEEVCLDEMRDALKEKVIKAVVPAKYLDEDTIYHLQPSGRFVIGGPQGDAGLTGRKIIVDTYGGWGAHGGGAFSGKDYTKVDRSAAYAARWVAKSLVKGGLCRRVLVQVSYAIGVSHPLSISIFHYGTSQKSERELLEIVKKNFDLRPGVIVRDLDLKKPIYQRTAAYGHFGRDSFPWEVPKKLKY

Compound | IC50 ([1]; class symbols) | IC50 ([2]; class symbols) | IC50 ([1]; numeric bound) | IC50 ([2]; numeric bound)
O=c1nc(-c2ccccc2)c2cc(Cl)ccc2[nH]1 [1.001, 6-chloro-4-phenylquinazolin-2-ol] | 0.01 to 0.2 µM | 0.01 to 0.2 µM | – | –
Clc1ccc2nc(Cl)nc(-c3ccccc3)c2c1 [1.002, 2,6-dichloro-4-phenylquinazoline] | – | – | > 10 µM | > 10 µM
Oc1nc(-c2cccnc2Cl)c2cc(Br)ccc2n1 [1.003, 6-bromo-4-(2-chloropyridin-3-yl)quinazolin-2-ol] | 0.2 to 0.5 µM | – | – | –
CC(C)(C)OC(=O)N1CC(Oc2nc(-c3ccccc3)c3cc(Cl)ccc3n2)C1 [1.004, tert-butyl 3-((6-chloro-4-phenylquinazolin-2-yl)oxy)azetidine-1-carboxylate] | – | – | > 10 µM | > 10 µM
N#Cc1nc(-c2ccccc2)c2cc(Cl)ccc2n1 [1.005, 6-chloro-4-phenylquinazoline-2-carbonitrile] | – | – | > 10 µM | > 10 µM
O=C(O)c1nc(-c2ccccc2)c2cc(Cl)ccc2n1 [1.006, 6-chloro-4-phenylquinazoline-2-carboxylic acid] | – | – | > 10 µM | –
CNC(=O)c1nc(-c2ccccc2)c2cc(Cl)ccc2n1 [1.008, 6-chloro-N-methyl-4-phenylquinazoline-2-carboxamide] | – | – | > 10 µM | > 10 µM
OCc1nc(-c2ccccc2)c2cc(Cl)ccc2n1 [1.009] | – | – | > 10 µM | > 10 µM
N#CCc1nc(-c2ccccc2)c2cc(Cl)ccc2n1 [1.010, 2-(6-chloro-4-phenylquinazolin-2-yl)acetonitrile] | – | – | > 10 µM | > 10 µM
NC(=O)Cc1nc(-c2ccccc2)c2cc(Cl)ccc2n1 [1.011, 2-(6-chloro-4-phenylquinazolin-2-yl)acetamide] | – | – | > 10 µM | > 10 µM
COC(=O)Cc1nc(-c2ccccc2)c2cc(Cl)ccc2n1 [1.012, methyl 2-(6-chloro-4-phenylquinazolin-2-yl)acetate] | – | – | > 10 µM | > 10 µM
O=c1nc(-c2ccccc2)c2cc(Br)ccc2[nH]1 [1.013, 6-bromo-4-phenylquinazolin-2-ol] | 0.01 to 0.2 µM | 0.01 to 0.2 µM | – | –
Cc1ccc2[nH]c(=O)nc(-c3ccccc3)c2c1 [1.014, 6-methyl-4-phenylquinazolin-2-ol] | 0.5 to 1 µM | – | – | –
Oc1nc(-c2ccccc2)c2cc(C(F)(F)F)ccc2n1 [1.015, 4-phenyl-6-(trifluoromethyl)quinazolin-2-ol] | 0.01 to 0.2 µM | – | – | –
Cc1ccccc1-c1nc(O)nc2ccc(C3CC3)cc12 [1.016, 6-cyclopropyl-4-(o-tolyl)quinazolin-2-ol] | 0.01 to 0.2 µM | – | – | –
Oc1nc(-c2cccnc2)c2cc(Br)ccc2n1 [1.017, 6-bromo-4-(pyridin-3-yl)quinazolin-2-ol] | 1 to 10 µM | – | – | –
Cc1ccc2nc(O)nc(-c3ccccc3)c2n1 [1.018, 6-methyl-4-phenylpyrido[3,2-d]pyrimidin-2-ol] | 1 to 10 µM | – | – | –
COc1cc(C2CC2)cc2c(-c3ccccc3)nc(O)nc12 [1.019, 6-cyclopropyl-8-methoxy-4-phenylquinazolin-2-ol] | 0.01 to 0.2 µM | – | – | –
Cc1ncccc1-c1nc(O)nc2ccc(Br)cc12 [1.020, 6-bromo-4-(2-methylpyridin-3-yl)quinazolin-2-ol] | 0.01 to 0.2 µM | – | – | –
Oc1nc(-c2cccnc2C(F)(F)F)c2cc(Br)ccc2n1 [1.021, 6-bromo-4-(2-(trifluoromethyl)pyridin-3-yl)quinazolin-2-ol] | 1 to 10 µM | – | – | –
